From patent publication US20230093147A1, “METHODS AND COMPOSITIONS RELATING TO IMPROVED COMBINATION THERAPIES” (PRESIDENT AND FELLOWS OF HARVARD COLLEGE, priority 2020, published 2023)
Several values for one entry are separate records, joined by “and”; a condition that tells them apart may be missing. Equal entries are not always repeated.

Key:
[1] = tested on: 4T1 murine breast cancer cells; test: In vitro cellular inhibition (MTT) and synergy quantification; type: cell-based
Experimental: 4T1 cells were seeded in 96 well plates at a density of 500 cells/well. Cells were given 24 hours to adhere to the well plate. Afterwards, a series of ten drug or drug combination dilutions prepared in fresh media were administered to the cells, with a starting concentration of 100 μM. The drugs were incubated with the cells for 72 hours before the media was removed and replaced with 0.5 mg/ml of MTT reagent in media fresh media. The MTT reagent was left incubating with the cells for 4 hours, during which living cells metabolized the reagent to form solid formazan crystals. Afterwards, the MTT reagent in media was removed, and the crystallized formazan was dissolved in DMSO. The plate is shaken at 300 rpm for 15 minutes to fully dissolve the formazan crystals, and absorbance was measured at 590 nm via Spectramax i3 plate reader. The fraction of cells inhibited at a certain drug concentration was calculated by: […]
where A is the average absorbance of the treated wells, A0 is the average absorbance of the blank wells with DMSO, and AC is the average absorbance of the control untreated wells. The IC50 values for each treatment was then determined through fitting of the Hill equation for dose-response in GraphPad™. The Hill equation is given as follows: […]
with X as the drug concentration and Y as the fractional inhibition, and m is known as the Hill coefficient and is determined according to the fit.
To evaluate drug efficacy against 4T1, drugs were evaluated as single drugs and as combination treatments with DOX. Synergy was quantified using the combination index (CI)^10. The formula for CI is as follows:
Where [AC]50 and [BC]50 represent the IC50 of drugs A and B when given in combination, and the denominator represents the IC50 of single drugs A and B. CI<1 indicates synergy, while a CI=1 indicates additive effects, and a CI>1 indicates antagonism.

4T1 cells = test: Calreticulin exposure on 4T1 cells; type: cell-based, murine; settings: 10 μM DOX, compared to untreated controls
Experimental: Cells for antibody staining and flow cytometry studies were plated in 6-well plates in 3 ml of media and allowed to adhere overnight. […] Treatment was administered approximately 24 h after plating. Cells were harvested using 0.5 ml of trypsin and resuspended to establish 10^6 cells in 100 μl of cell staining buffer. Cells were washed once and incubated at room temperature with 1% CD16/32 in 100 μl of cell staining buffer. After another wash, cells were incubated for 30 min on ice with fluorescently labeled antibodies (Table 12) to distinguish tumor antigens or characteristic markers of immune cell subtypes. Antibody-stained cells were then washed twice before analysis with a BD LSRII flow cytometer.

[2] = Drug release from liposomes into PBS at 37° C. over 24 hours, Example 1; type: physicochemical; settings: release from liposomal formulation
Experimental: The release profile of drug from liposomes was studied using Amicon Ultra mini dialysis filters supplied by Millipore Sigma (Burlington, Mass.) at sink conditions^59. A tenfold dilution of each liposomal formulation in PBS was kept in the mini dialysis filter at 37° C. above a 1.1 ml PBS reservoir. Samples were placed on a plate shaker for constant agitation. […] All PBS reservoirs were analyzed for released drug content using HPLC.

[3] = free drugs and free drug combinations
[4] = free drugs and free drug combinations, 72 hours, 500 cells/well
[5] = Mus musculus, 72 h, free drugs and free drug combinations, 500 cells/well

Row | SMILES | Hill coefficient, HC [1, 3] | IC50 [1, 4] | fold increase in calreticulin exposure on 4T1 cells (4T1 cells) | IC50 [1, 5] | IC50 ([1]; Mus musculus, free drug) | IRIN released within 24 hours [2]
1 | COc1cccc2c1C(=O)c1c(O)c3c(c(O)c1C2=O)C[C@@](O)(C(=O)CO)C[C@@H]3O[C@H]1C[C@H](N)[C@H](O)[C@H](C)O1 [DOX, Doxorubicin] | 0.75 ± 0.04 | 36 nM | 1.8 fold |  |  | 
2 | Nc1ccn([C@@H]2O[C@H](CO)[C@@H](O)C2(F)F)c(=O)n1 [GEM, gemcitabine] | 1.8±0.09 and 1.83 ± 0.09 |  |  | 12 ± 0.3 nM | 12 ± 0.3 nM | 
3 | CCc1c2c(nc3ccc(OC(=O)N4CCC(N5CCCCC5)CC4)cc13)-c1cc3c(c(=O)n1C2)COC(=O)[C@]3(O)CC [IRIN, irinotecan] |  | 14000 ± 700 nM |  | 14000 nM |  | less than 40%
